US12606557B2, “Substituted indoles with inhibitory activity” (UNIVERSITY OF PITTSBURGH—OF THE COMMONWEALTH SYSTEM OF …, priority 2020, dated 2026)
“And” between values parts separate entries of the source, which are not always exact repeats. Equal values may be shown once. Read-outs that look alike come from different tables or passages of the source.

Test: Blood pharmacokinetics after a single intraperitoneal dose
Format: in vivo, male CD1 mice
Details: for blood concentrations quantifiable up to: 1 animal out of 3, LLOQ 10.04 ng/mL; for concentration at 0.08 hr / concentration at 0.25 hr / concentration at 0.5 hr / concentration at 1 hr / concentration at 2 hr / concentration at 4 hr / concentration at 8 hr / concentration at 24 hr / AUC(0-inf) / AUC(0-t) / Cmax / Tmax: male, CD1, mouse, in vivo; for concentration at 24 hr: value excluded from data analysis; for AUC(0-inf) / AUC(0-t) / Cmax / Tmax: blood, mean
Protocol: The objective of this example was to investigate the blood pharmacokinetics of UPHH-123 in male CD1 mice following a single intraperitoneal dose administration. Eighteen male CD1 mice were divided in two groups as, Group 1 and Group 2 comprising nine mice in each group.
Animals in Group 1 were administered intraperitoneally with UPHH-123 solution formulation in 5% NMP, 5% Solutol HS, 30% PEG-400 and 60% normal saline at 10.4 mg/kg dose. Animals in Group 2 were administered intraperitoneally with UPHH-123 solution formulation in 5% NMP, 5% Solutol HS, 30% PEG-400 and 60% normal saline) at 52 mg/kg dose.
Blood samples (approximately 120 μL) were collected at pre-dose, 0.08, 0.25, 0.5, 1, 2, 4, 8 and 24 hr. The blood samples were collected at each time point in a labeled micro centrifuge tube containing K2EDTA as anticoagulant. Immediately aliquot (50 μL) of blood was hemolyzed with equal volume of water (50 μL) and quenched with three volume (150 μL) of acetonitrile (IS containing acetonitrile) and samples were stored below −70° C. until bioanalysis. All samples were processed for analysis by protein precipitation using acetonitrile (ACN) and analyzed with fit for purpose LC/MS/MS method (LLOQ: 10.04 ng/mL for UPHH-123 in blood). Pharmacokinetic parameters were calculated using the non-compartmental analysis tool of Phoenix WinNonlin (Version 7.0). Mean pharmacokinetic parameters are summarized below: […]

blood concentrations quantifiable up to (10.4 mg/kg IP): up to 24 hr | Blood Concentration, individual animal (10.4 mg/kg IP, 0.08 hr): 2082.46 ng/mL and 2293.56 ng/mL | Blood Concentration, individual animal (10.4 mg/kg IP, 0.25 hr): 2572.69 ng/mL and 4414.44 ng/mL | Blood Concentration, individual animal (10.4 mg/kg IP, 0.5 hr): 675.87 ng/mL and 848.67 ng/mL | Blood Concentration, individual animal (10.4 mg/kg IP, 1 hr): 105.72 ng/mL and 180.27 ng/mL | Blood Concentration, individual animal (10.4 mg/kg IP, 8 hr): 26.21 ng/mL and 17.80 ng/mL | Blood Concentration, individual animal (10.4 mg/kg IP, 24 hr, below LLOQ 10.04 ng/mL = zero): 0.00 ng/mL (2×) and 14.58 ng/mL | blood concentrations quantifiable up to (52 mg/kg IP): up to 24 hr | Blood Concentration, individual animal (52 mg/kg IP, 0.08 hr): 7841.88 ng/mL and 4635.35 ng/mL | Blood Concentration, individual animal (52 mg/kg IP, 0.25 hr): 6058.02 ng/mL and 5694.33 ng/mL | Blood Concentration, individual animal (52 mg/kg IP, 0.5 hr): 3520.30 ng/mL and 4708.54 ng/mL | Blood Concentration, individual animal (52 mg/kg IP, 1 hr): 2031.75 ng/mL and 2659.04 ng/mL | Blood Concentration, individual animal (52 mg/kg IP, 8 hr): 167.15 ng/mL and 107.02 ng/mL | Blood Concentration, individual animal (52 mg/kg IP, 24 hr, below LLOQ 10.04 ng/mL = zero): 0.00 ng/mL (2×) and 10.38 ng/mL | dose related increase in plasma exposure (from 10.4 to 52 mg/kg IP): 3.6 fold | concentration at 0.08 hr (10.4 mg/kg, 10.4 mg/kg IP, 0.08 hr, read-out: Blood Concentration, Mean): 1990 ng/mL | concentration at 0.08 hr (10.4 mg/kg, 10.4 mg/kg IP, 0.08 hr, read-out: Blood Concentration, individual animal): 1600 ng/mL | concentration at 0.25 hr (10.4 mg/kg, 10.4 mg/kg IP, 0.25 hr, read-out: Blood Concentration, Mean): 3810 ng/mL | concentration at 0.25 hr (10.4 mg/kg, 10.4 mg/kg IP, 0.25 hr, read-out: Blood Concentration, individual animal): 4440 ng/mL | concentration at 0.5 hr (10.4 mg/kg, 10.4 mg/kg IP, 0.5 hr, read-out: Blood Concentration, Mean): 681 ng/mL | concentration at 0.5 hr (10.4 mg/kg, 10.4 mg/kg IP, 0.5 hr, read-out: Blood Concentration, individual animal): 519 ng/mL | concentration at 1 hr (10.4 mg/kg, 10.4 mg/kg IP, 1 hr, read-out: Blood Concentration, Mean): 148 ng/mL | concentration at 1 hr (10.4 mg/kg, 10.4 mg/kg IP, 1 hr, read-out: Blood Concentration, individual animal): 158 ng/mL | concentration at 2 hr (10.4 mg/kg, 10.4 mg/kg IP, 2 hr): 88 ng/mL | concentration at 4 hr (10.4 mg/kg, 10.4 mg/kg IP, 4 hr): 86.4 ng/mL | concentration at 8 hr (10.4 mg/kg, 10.4 mg/kg IP, 8 hr, read-out: Blood Concentration, Mean): 22.6 ng/mL | concentration at 8 hr (10.4 mg/kg, 10.4 mg/kg IP, 8 hr, read-out: Blood Concentration, individual animal): 23.9 ng/mL | concentration at 24 hr (10.4 mg/kg, 10.4 mg/kg IP, 24 hr): 14.6 ng/mL | concentration at 0.08 hr (52 mg/kg, 52 mg/kg IP, 0.08 hr, read-out: Blood Concentration, Mean): 6160 ng/mL | concentration at 0.08 hr (52 mg/kg, 52 mg/kg IP, 0.08 hr, read-out: Blood Concentration, individual animal): 6000 ng/mL | concentration at 0.25 hr (52 mg/kg, 52 mg/kg IP, 0.25 hr, read-out: Blood Concentration, Mean): 5680 ng/mL | concentration at 0.25 hr (52 mg/kg, 52 mg/kg IP, 0.25 hr, read-out: Blood Concentration, individual animal): 5280 ng/mL | concentration at 0.5 hr (52 mg/kg, 52 mg/kg IP, 0.5 hr, read-out: Blood Concentration, Mean): 3820 ng/mL | concentration at 0.5 hr (52 mg/kg, 52 mg/kg IP, 0.5 hr, read-out: Blood Concentration, individual animal): 3230 ng/mL | concentration at 1 hr (52 mg/kg, 52 mg/kg IP, 1 hr, read-out: Blood Concentration, Mean): 2330 ng/mL | concentration at 1 hr (52 mg/kg, 52 mg/kg IP, 1 hr, read-out: Blood Concentration, individual animal): 2280 ng/mL | concentration at 2 hr (52 mg/kg, 52 mg/kg IP, 2 hr): 360 ng/mL | concentration at 4 hr (52 mg/kg, 52 mg/kg IP, 4 hr): 238 ng/mL | concentration at 8 hr (52 mg/kg, 52 mg/kg IP, 8 hr, read-out: Blood Concentration, Mean): 145 ng/mL | concentration at 8 hr (52 mg/kg, 52 mg/kg IP, 8 hr, read-out: Blood Concentration, individual animal): 160 ng/mL | concentration at 24 hr (52 mg/kg, 52 mg/kg IP, 24 hr): 10.4 ng/mL | AUC(0-inf) (10.4 mg/kg IP): 1950 ng·h/mL | AUC(0-t) (10.4 mg/kg IP): 1850 ng·h/mL | Cmax (10.4 mg/kg IP): 3810 ng/mL | Tmax (10.4 mg/kg IP): 15 min | AUC(0-inf) (52 mg/kg IP): 7640 ng·h/mL | AUC(0-t) (52 mg/kg IP): 6680 ng·h/mL | Cmax (52 mg/kg IP): 6160 ng/mL | Tmax (52 mg/kg IP): 4.8 min
Structure (SMILES): COc1ccc(Cn2ccc3ccc(C(=O)NO)cc32)cc1 [UPHH-123]
Blood Concentration, individual animal (10.4 mg/kg IP, 2 hr): 39.90 ng/mL and 98.73 ng/mL and 125.25 ng/mL | Blood Concentration, individual animal (10.4 mg/kg IP, 4 hr): 47.81 ng/mL and 118.38 ng/mL and 92.93 ng/mL | Blood Concentration, individual animal (52 mg/kg IP, 2 hr): 315.76 ng/mL and 238.47 ng/mL and 525.92 ng/mL | Blood Concentration, individual animal (52 mg/kg IP, 4 hr): 442.67 ng/mL and 145.43 ng/mL and 125.55 ng/mL
